According to patent US20190367516A1 (Bayer Pharma Aktiengesellschaft, priority 2015, published 2019):
Where two headings read alike, the source gives them in different places.

Tests used:
human M2 receptor [1] = molecular target: T1, human M2 receptor (Homo sapiens, UniProt P08172); type: cell-based; settings: α >1 = positive cooperativity
T1 sequence (P08172 1-466): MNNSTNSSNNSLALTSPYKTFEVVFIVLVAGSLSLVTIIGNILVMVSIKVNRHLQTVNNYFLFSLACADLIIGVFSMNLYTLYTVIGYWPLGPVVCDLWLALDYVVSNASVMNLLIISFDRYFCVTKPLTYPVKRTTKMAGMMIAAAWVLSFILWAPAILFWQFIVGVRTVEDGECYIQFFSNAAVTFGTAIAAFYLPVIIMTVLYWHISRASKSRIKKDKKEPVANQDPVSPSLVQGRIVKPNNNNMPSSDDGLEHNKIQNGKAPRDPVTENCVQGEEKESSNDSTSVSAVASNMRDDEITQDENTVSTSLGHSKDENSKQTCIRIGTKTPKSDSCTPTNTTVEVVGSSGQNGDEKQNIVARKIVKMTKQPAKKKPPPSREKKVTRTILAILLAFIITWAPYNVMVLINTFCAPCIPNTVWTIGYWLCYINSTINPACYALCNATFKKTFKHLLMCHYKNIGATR

human M2 receptor [2] = molecular target: T1, human M2 receptor; settings: for Efficiency: boosting of the acetylcholine effect at EC20 acetylcholine concentration
[3] = shift of acetylcholine dose-response curve (Allosteric EC50 shift)
[4] = Receptor activity EC50, allosteric potency at EC20 acetylcholine, M2-GIRK1/4 reporter cells, in some cases mean of two or more determinations
[5] = read-out: Efficiency, boosting of the acetylcholine effect at EC20 acetylcholine concentration, M2-GIRK1/4 reporter cells
[6] = shift in the acetylcholine dose-response curve (Allosteric EC50 shift, GraphPad PRISM)
[7] = Receptor activity EC50, M2-GIRK1/4 activation test, acetylcholine at EC20, allosteric potency, in some cases mean values from two or more determinations

Cooperativity (alpha factor) (human M2 receptor [1]; [6]) | EC50 (human M2 receptor [2]; [7]) | Structure (SMILES) | other results
 |  | CC[C@@H](NC(=O)c1cn(-c2ccc(F)cc2F)c2nc(N3C[C@@H](O)[C@H](O)C3)ccc2c1=O)C(F)(F)F [Example 646, 1-(2,4-Difluorophenyl)-7-[(3R,4R)-3,4-dihydroxypyrrolidin-1-yl]-4-oxo-N-[(2R)-1,1,1-trifluorobutan-2-yl]-1,4-dihydro-1,8-naphthyridine-3-carboxamide] | Cooperativity (alpha factor) (human M2 receptor [1]; [3]): 30; EC50 (human M2 receptor [2]; [4]): 0.074 µM; Emax (human M2 receptor [2]; [5]): 100%
41 | 0.057 µM | O=C(NC(COC(F)(F)F)c1ccccc1)c1cn(-c2ccc(F)cc2F)c2nc(N3C[C@@H](O)CC3=O)ccc2c1=O (mixture of isomers) [Example 233, 1-(2,4-Difluorophenyl)-7-[(4S)-4-hydroxy-2-oxopyrrolidin-1-yl]-4-oxo-N-[1-phenyl-2-(trifluoromethoxy)ethyl]-1,4-dihydro-1,8-naphthyridine-3-carboxamide] | 
8 | 0.295 µM | CC(NC(=O)c1cn(-c2ccc(F)cc2F)c2nc(NCC(F)F)ccc2c1=O)C(F)(F)F (racemic) [Example 121, rac-7-[(2,2-Difluoroethyl)amino]-1-(2,4-difluorophenyl)-4-oxo-N-[1,1,1-trifluoropropan-2-yl]-1,4-dihydro-1,8-naphthyridine-3-carboxamide] | 
 |  | CCN1CCCN(c2ccc3c(=O)c(C(=O)N[C@@H](C4CC4)C(F)(F)F)cn(-c4c(F)cc(F)cc4F)c3n2)C1=O [Example 539, N-[(1S)-1-Cyclopropyl-2,2,2-trifluoroethyl]-7-(3-ethyl-2-oxotetrahydropyrimidin-1(2H)-yl)-4-oxo-1-(2,4,6-trifluorophenyl)-1,4-dihydro-1,8-naphthyridine-3-carboxamide] | Cooperativity (alpha factor) (human M2 receptor [1]; [3]): 21; EC50 (human M2 receptor [2]; [4]): 0.007 µM; Emax (human M2 receptor [2]; [5]): 86.5%
24 | 0.027 µM | CC[C@@H](NC(=O)c1cn(-c2ccc(F)cc2F)c2nc(N3CC4CC4(O)C3)ccc2c1=O)C(F)(F)F (single isomer, unassigned) [Example 314] | 
36 | 0.059 µM | CC12CCC(NC(=O)c3cn(-c4ccc(F)cc4F)c4nc(N5CC(O)CC5=O)ccc4c3=O)(CC1)CC2 (stereo not shown) [Example 181] | 
12 | 0.058 µM | CO[C@@H]1CCN(c2ccc3c(=O)c(C(=O)NC45CCC(C)(CC4)CC5)cn(-c4ccc(F)cc4F)c3n2)C1 [Example 19, 1-(2,4-Difluorophenyl)-7-[(3R)-3-methoxypyrrolidin-1-yl]-N-(4-methylbicyclo[2.2.2]oct-1-yl)-4-oxo-1,4-dihydro-1,8-naphthyridine-3-carboxamide] | 
4 | 0.112 µM | CC[C@@H](NC(=O)c1cn(-c2ccc(F)cc2F)c2nc(N3CCC4(C3)CC4(F)F)ccc2c1=O)C(F)(F)F (mixture of isomers) [Example 29, 7-(1,1-Difluoro-5-azaspiro[2.4]hept-5-yl)-1-(2,4-difluorophenyl)-4-oxo-N-[(2R)-1,1,1-trifluorobutan-2-yl]-1,4-dihydro-1,8-naphthyridine-3-carboxamide (diastereomer mixture)] | 
26 | 0.044 µM | C[C@@H](COC(F)(F)F)NC(=O)c1cn(-c2c(F)cc(F)cc2F)c2nc(N3C[C@@H](O)CC3=O)ccc2c1=O [Example 339, 7-[(4S)-4-Hydroxy-2-oxopyrrolidin-1-yl]-4-oxo-N-[(2S)-1-(trifluoromethoxy)propan-2-yl]-1-(2,4,6-trifluorophenyl)-1,4-dihydro-1,8-naphthyridine-3-carboxamide] | 
20 | 0.091 µM | CC[C@@H](NC(=O)c1cn(-c2ccc(F)cc2F)c2nc(N3CC[C@@H](F)[C@H](O)C3)ccc2c1=O)C(F)(F)F [Example 33, 1-(2,4-Difluorophenyl)-7-[(3R,4R)-4-fluoro-3-hydroxypiperidin-1-yl]-4-oxo-N-[(2R)-1,1,1-trifluorobutan-2-yl]-1,4-dihydro-1,8-naphthyridine-3-carboxamide] | 
 |  | CC[C@@H](COC(F)(F)F)NC(=O)c1cn(-c2c(F)cc(F)cc2F)c2nc(N3C[C@@H](C)NC3=O)ccc2c1=O (single isomer, unassigned) [Example 454] | Cooperativity (alpha factor) (human M2 receptor [1]; [3]): 28; EC50 (human M2 receptor [2]; [4]): 0.007 µM; Emax (human M2 receptor [2]; [5]): 100%
 |  | O=C(NC(c1ccccc1Cl)C(F)(F)F)c1cn(-c2c(F)cc(F)cc2F)c2nc(N3C[C@@H](O)[C@H](O)C3)ccc2c1=O (single isomer, unassigned) [Example 562] | Cooperativity (alpha factor) (human M2 receptor [1]; [3]): 40; EC50 (human M2 receptor [2]; [4]): 0.01 µM; Efficiency (human M2 receptor [2]; M2-GIRK1/4 reporter cells): 100.0%
34 | 0.042 µM | CC12CCC(NC(=O)c3cn(-c4ccc(F)cc4F)c4nc(N5CC[C@@H](O)C5)ccc4c3=O)(CC1)CC2 [Example 20, 1-(2,4-Difluorophenyl)-7-[(3R)-3-hydroxypyrrolidin-1-yl]-N-(4-methylbicyclo[2.2.2]oct-1-yl)-4-oxo-1,4-dihydro-1,8-naphthyridine-3-carboxamide] | 
7 | 0.033 µM | CC[C@H](NC(=O)c1cn(-c2c(F)cc(F)cc2F)c2nc(N3C[C@@](C)(O)C[C@H]3C)ccc2c1=O)C(F)(F)F [Example 331, 7-[(2R,4S)-4-Hydroxy-2,4-dimethylpyrrolidin-1-yl]-4-oxo-N-[(2S)-1,1,1-trifluorobutan-2-yl]-1-(2,4,6-trifluorophenyl)-1,4-dihydro-1,8-naphthyridine-3-carboxamide] | 
 |  | CC[C@@H](COC(F)(F)F)NC(=O)c1cn(-c2c(F)cc(F)cc2F)c2nc(N3C[C@@H](C)NC3=O)ccc2c1=O (single isomer, unassigned) [Example 455] | Cooperativity (alpha factor) (human M2 receptor [1]; [3]): 17; EC50 (human M2 receptor [2]; [4]): 0.01 µM; Efficiency (human M2 receptor [2]; M2-GIRK1/4 reporter cells): 100.0%
14 | 0.115 µM | CC[C@@H](NC(=O)c1cn(-c2ccc(F)cc2F)c2nc(NCC(F)F)ccc2c1=O)C(F)(F)F [Example 123, 7-[(2,2-Difluoroethyl)amino]-1-(2,4-difluorophenyl)-4-oxo-N-[(2R)-1,1,1-trifluorobutan-2-yl]-1,4-dihydro-1,8-naphthyridine-3-carboxamide] | 
55 | 0.033 µM | O=C(NC(c1cccc(F)c1)C(F)(F)F)c1cn(-c2ccc(F)cc2F)c2nc(N3C[C@@H](O)CC3=O)ccc2c1=O (mixture of isomers) [Example 272, 1-(2,4-Difluorophenyl)-7-[(4S)-4-hydroxy-2-oxopyrrolidin-1-yl]-4-oxo-N-[2,2,2-trifluoro-1-(3-fluorophenyl)ethyl]-1,4-dihydro-1,8-naphthyridine-3-carboxamide] | 
3 | 0.094 µM | CC[C@H](NC(=O)c1cn(-c2ccc(F)cc2F)c2nc(N3CC=CC3=O)ccc2c1=O)C(F)(F)F [Example 286, 1-(2,4-Difluorophenyl)-4-oxo-7-(2-oxo-2,5-dihydro-1H-pyrrol-1-yl)-N-[(2S)-1,1,1-trifluorobutan-2-yl]-1,4-dihydro-1,8-naphthyridine-3-carboxamide] | 
 |  | CC[C@H](NC(=O)c1cn(-c2c(F)cc(F)cc2F)c2nc(N3CCN(C(=O)OC)CC3)ccc2c1=O)C(F)(F)F [Example 595, Methyl 4-[5-oxo-6-{[(2S)-1,1,1-trifluorobutan-2-yl]carbamoyl}-8-(2,4,6-trifluorophenyl)-5,8-dihydro-1,8-naphthyridin-2-yl]piperazine-1-carboxylate] | Cooperativity (alpha factor) (human M2 receptor [1]; [3]): 36; EC50 (human M2 receptor [2]; [4]): 0.019 µM; Emax (human M2 receptor [2]; [5]): 94%
16 | 0.14 µM | CC[C@@H](NC(=O)c1cn(-c2ccc(F)cc2F)c2nc(N3CCC(C)(O)C3=O)ccc2c1=O)C(F)(F)F (mixture of isomers) [Example 194, 1-(2,4-Difluorophenyl)-7-[3-hydroxy-3-methyl-2-oxopyrrolidin-1-yl]-4-oxo-N-[(2R)-1,1,1-trifluorobutan-2-yl]-1,4-dihydro-1,8-naphthyridine-3-carboxamide] | 

Structure (SMILES) | Cooperativity (alpha factor) (human M2 receptor [1]; [6]) | EC50 (human M2 receptor [2]; [7]) | other results
CC[C@H](NC(=O)c1cn(-c2c(F)cccc2F)c2nc(N3C[C@@H](O)CC3=O)ccc2c1=O)C(F)(F)F [Example 333, 1-(2,6-Difluorophenyl)-7-[(4S)-4-hydroxy-2-oxopyrrolidin-1-yl]-4-oxo-N-[(2S)-1,1,1-trifluorobutan-2-yl]-1,4-dihydro-1,8-naphthyridine-3-carboxamide] | 28 | 0.031 µM | Emax (human M2 receptor [2]; read-out: Efficiency): 94.5%
CN(C)c1ccc2c(=O)c(C(=O)NC34CC5CC(CC(C5)C3)C4)cn(-c3ccc(F)cc3F)c2n1 [Example 36, 1-(2,4-Difluorophenyl)-7-(dimethylamino)-4-oxo-N-(tricyclo[3.3.1.1^3,7]dec-1-yl)-1,4-dihydro-1,8-naphthyridine-3-carboxamide] | 16 | 0.019 µM | Emax (human M2 receptor [2]; read-out: Efficiency): 96.1%
